The text below walks through data of patent publication US12285404B2, “Prevention of rosacea inflammation” (The Regents of the University of California, priority 2013, dated 2025).

Experiment [1] concerns protease that cleaves full length cathelicidin. To be noted: cited from earlier work.
Another experiment relates to WT mice. The experiment is described as follows: MC stabilizer experiment: cromolyn sodium I.P. pretreatment before Cath LL-37 challenge (rosacea mouse model). Type of experiment: in vivo. As for the experimental part: WT mice were injected I.P. with vehicle or cromolyn sodium (10 mg/kg, per day) for 4 days. 24 hours after the last injection, the mice were injected intradermally with 50 μl of […] Cath LL-37 or PBS, twice a day for 2 days. Skin biopsies were taken after 72 hours of observation and (a) Mmp-9 and Cxcl2 mRNA expressions were assessed by RT-PCR, (b) MMP-9 activity was assessed by measuring cleavage of a MMP fluorogenic substrate with specific inhibitors, and (c) immunohistochemistry was performed on frozen skin sections using antibodies against MMP-9 and FcεRI. DAPI stain was also used, as indicated. Statistics: one-way and two-way ANOVA **p<0.01 (n=3).
Mast cell deficient (C57BL/6-KitWsh^−/−) mice were bred. KitWsh^−/− mice bearing the W-sash (Wsh) inversion mutation have MC deficiency, but lack anemia and sterility. […] Wild type mice (C57BL/6) were utilized as control. Mice were shaved 24 hrs before intradermal injection with 50 μl of 50 μM or 320 μM of Cath LL-37 or filtered PBS (n=3), twice a day for 2 days and skin biopsies were taken after 72 hours of observation. Total RNA was extracted and purified by RNeasy Mini Kit (QIAGEN science). For the time course observation, skin biopsies of WT and MC deficient mice were taken at 1, 4, and 24 hrs after Cath LL-37 injection.
For the MC stabilizer experiment: Cromolyn sodium (0.3 mg/mouse/day) (Sigma-Aldrich, St Louis, MO) in PBS was injected I.P. into WT mice for 4 days.
Total-MMP activities were determined by following previously reported study (Kanada et al., 2012). To determine MMP-9 activity, MMP-9 specific inhibitor I (Thermo Fisher Scientific, Chicago, IL) was used.
cDNA was synthesized from RNA using the iScript cDNA Synthesis Kit (BioRad, Hercules, CA) according to the manufacturer's protocol. cDNA was normalized using a NanoDrop spectrophotometer (Thermo Fisher Scientific Inc.). Probes from TagMan Gene Expression Assays (Applied Biosystems ABI, Foster City, CA) were used to analyze gene expressions with following to the manufacturer's instructions. Gapdh mRNA was used as an internal control to validate RNA for each sample. mRNA expression was calculated as the relative expression to Gapdh mRNA, and all data are presented as fold change of each control.
Fluorescence immunohistochemistry. Mouse skin frozen sections were fixed with acetone, washed in 1×PBS, blocked with 5% goat serum/1% BSA for 30 minutes, and incubated with anti-MMP-9 polyclonal antibody (ABBIOTEC, San Diego, CA). For FcERI detection, anti-mouse FcERI PE (eBioscience, San Diego, CA) was used. Images were obtained using a Zeiss LSM510 laser scanning confocal microscope coupled with an Axiovert 100 inverted stage microscope.
According to the obtained results, MC proteases and MMP-9, which are released from MCs upon stimulation by Cath LL-37, are central in promoting rosacea-like skin inflammation. […] To test this hypothesis, cromolyn sodium, a very well-known MC stabilizer, was injected I.P. into WT mice (10 mg/kg, per day) every day for 4 days before Cath LL-37 challenge. 24 hours after the last cromolyn sodium injection, mice were injected with 50 μl of […] Cath LL-37 or PBS, twice a day for 2 days. […] In addition, frozen skin sections were stained with anti-MMP-9 and anti-FIERI antibodies for the detection of MCs.

In experiment [2] the test system is erythematotelangiectatic rosacea subjects. The experiment is described as follows: Topical 4% cromolyn sodium vs placebo in erythematotelangiectatic rosacea subjects, clinical evaluation and tape strips. Type of experiment: in vivo, human. As for the experimental part:
(a, b) NHEK cells were co-cultured with 100 μl of supernatant of human cord blood-derived MCs after degranulation by 48/80, or serine buffer. (a) After 24 hrs of co-culture, NHEK cells were washed well and MMP and KLK activities in the cells were obtained, and (b) For the comparison of Cath LL-37 mRNA expression in NHEK cells, 100 nM of 1,25(OH)2VD3 was added to same co-culture. (c) 10 erythematotelangiectatic rosacea subjects were randomized to apply a solution containing either the MC stabilizer (4% cromolyn sodium) (n=5) or placebo (n=5) topically. Tape strips were obtained at the first visit (v1) and last visit (v4) and proteases and protein were separately extracted. Statistics: t-test ***p<0.001 (n=3), *p<0.05 (n=5).
2 mm skin biopsies were taken from the faces of healthy and rosacea subjects, as well as tape strips from the face of erythematotelangiectatic rosacea subjects in the dermatology clinic at the University of California, San Diego. All the procedures involving human subjects were approved by the University of California San Diego Institutional Review Board under the IRB number 071032. Ten randomized adults with erythematotelangiectatic rosacea were applied a water-based solution containing either 4% cromolyn sodium or placebo, topically to their face twice a day, for 8 weeks. A clinical evaluation was performed at each visit. A total six tape strips were obtained from right and left cheek at each of the first visit and the final visit.
To test whether the results were reproducible in humans, 10 randomized adults with erythematotelangiectatic rosacea were used to apply a solution containing either the MC stabilizer (4% cromolyn sodium) or placebo, topically to their face twice daily. Six tape strips were obtained from both right and left cheeks, at the time of first visit (v1) and last visit (v4). After eight week (v4), facial erythema levels decreased in the cromolyn treatment group. MMP, KLK activity and Cath LL-37 protein levels were decreased in the cromolyn treatment group with significant activity in MMP observed (FIG. 5c).

[3] abbreviates: cromolyn pretreated, Cath LL-37 challenged WT mice, biopsies after 72 hours, p<0.01.
Where [4] appears, read: 4% cromolyn sodium topically twice daily, v1 vs v4.

Turning to `NCCc1ccc(S(=O)(=O)F)cc1` [AEBSF, 4-(2-aminoethyl)-benzenesulfonylfluoride], the “inhibition of the enzyme in vitro” value in experiment [1] is listed as “can inhibit this enzyme in vitro”.

`O=C(O)c1cc(=O)c2c(OCC(O)COc3cccc4oc(C(=O)O)cc(=O)c34)cccc2o1` [cromolyn, cromolyn sodium]: the “mast cell (MC) degranulation” value in the experiment with WT mice (FIG. 4 legend, cromolyn sodium 10 mg/kg per day I.P. for 4 days, WT mice) is recorded as “prevents mast cell (MC) degranulation”. For the same compound, the “MMP-9 activity in the tissue” value with WT mice (cromolyn pretreated, Cath LL-37 challenged WT mice, MMP fluorogenic substrate with specific inhibitors, p<0.01) is “dramatically decreased”. Moreover, in the experiment with WT mice (setting [3]), the “Cxcl2 mRNA expression in skin (RT-PCR)” value was “significantly decreased” and the “Mmp-9 mRNA expression in skin (RT-PCR)” value is on record as “significantly decreased”. In addition, the skin inflammation result in the experiment on WT mice (cromolyn sodium I.P. 10 mg/kg per day for 4 days, then 50 μl of 320 μm Cath LL-37 intradermally twice a day for 2 days, WT mice) is “did not develop”. Further, the facial erythema levels entry in experiment [2] (4% cromolyn sodium solution topically to face twice daily, after eight week (v4), n=5) is “decreased”. In addition, in experiment [2] (setting [4]), the “Cath LL-37 protein levels (tape strips)” value was “decreased” and the “KLK activity (tape strips)” value is given as “decreased”. In experiment [2] (4% cromolyn sodium topically twice daily, v1 vs v4, significant, p<0.05 (n=5)), the “MMP activity (tape strips)” value is “decreased”.

Consider aprotinin, for which the “inhibition of the enzyme in vitro” value in experiment [1] was “can inhibit this enzyme in vitro”.
